Measured values published in patent publication US10973863B2, “Method for regulating, preventing and/or treating pulmonary injury” (SINPHAR PHARMACEUTICAL CO., LTD., priority 2017, dated 2021).

Key:
MMP-9 = assay: Gelatin zymography: LPS-activated active expression of MMP-9 in NR8383 cells; format: cell-based, rat; conditions: LPS 1 μg/mL, 24 hours
Description: As indicated above, when an inflammatory response occurs in animal's pulmonary tissue, the active inflammatory cells will secret MMPs that will destroy the pulmonary tissue structure, cause more serious pulmonary injury, and lead to the decrement in or the loss of pulmonary functions. […]
Thereafter, the medium of each group was collected and respectively subjected to the following procedures. A 10% polyacrylamide gel containing 0.2% gelatin was used to carry out the sodium dodecyl sulfate polyacrylamide gel electrophoresis (SDS-PAGE). After the electrophoresis was completed, the gel was sequentially soaked in 2.5% Triton X-100 solution for 90 minutes to remove SDS, soaked in distillation-distillation water (ddH2O) for 30 minutes, and placed in a reaction solution (50 mM Tris-HCl buffer containing 10 mM CaCl2 and 0.02% NaN3) at a temperature of 37° C. for 18 hours. After the foregoing reaction was completed, the gel was stained by a Coomassie blue staining solution, and the image of stained gel was taken and subjected to an image analysis. The image intensity (the image intensity was calculated based on the size of area and the shade of color) of highlight band (i.e., the gelatin in this area was degraded by MMPs, wherein the area locating around 95 kD molecular weight) on the gel of each group can reflect the active expression of MMP-9 of rat alveolar macrophage NR8383 cells under different conditions (the relative active expression of MMP-9 was calculated by serving the results of the blank group as 0% and serving that of the control group as 100%).
Rat alveolar macrophage NR8383 cells were divided into twenty-eight groups and separately cultivated with the following media for 24 hours: • (1) Blank group: a macrophage growth medium; • (2) Control group: a macrophage growth medium containing 1 μg/mL LPS; • (3) Positive control group: a macrophage growth medium containing 1 μg/mL LPS and 5 μM Prednisolone (a type of corticosteroid; abbreviated as “Pred”; purchased from Sigma-Aldrich); • (4) Extract C (including five sub-groups): a macrophage growth medium containing 1 μg/mL LPS and the extract C provided by [preparation example A-3-2], wherein the extract C is present in the five sub-groups at a concentration of […] respectively; • (5) Extract D (including five sub-groups): a macrophage growth medium containing 1 μg/mL UPS and the extract D provided by [preparation example A-4-2], wherein the extract D is present in the five sub-groups at a concentration of 0.78, 1.56, 3.13, 6.25 and 12.5 respectively; • (6) Extract E (including five sub-groups): a macrophage growth medium containing 1 μg/mL LPS and the extract E provided from [preparation example A-4-3], wherein the extract E is present in the five sub-groups at a concentration of 0.78, 1.56, 3.13, […], and 12.5 respectively; • (7) DATA group (including five sub-groups): a macrophage growth medium containing 1 μg/mL LPS and the dehydrotrametenolic acid (DTTA) provided by [preparation example C-1], wherein the dehydrotrametenolic acid (DTTA) is present in the five sub-groups at a concentration of 0.39, 0.78, 1.56, 3.13 and 6.25 μg/mL respectively; and • (8) PAA group (including live sub-groups): a macrophage growth medium containing 1 μg/mL LPS and the poricoic acid A (PAA) provided from [preparation example C-1], wherein the poricoic acid A (PAA) is present in the five sub-groups at a concentration of 6.25, 12.5, 25, 50 and 100 respectively.
Thereafter, the medium of each group was collected and analyzed by the analyzing procedures same as that of (1-1).

[1] = system: TGFβ-induced intracellular accumulation of collagen in myofibroblast WI38 cells; assay: Picrosirius red staining: TGFβ-induced collagen accumulation in WI38 cells; format: cell-based; conditions: 1 ng/mL TGF-β
Description: As indicated above, the hyperactive expression of MMPs will cause pulmonary injury. Under the most circumstances, the response mechanisms in animals will activate, for example, macrophages will secret TGF-β and TGF-β which can promote the lung fibroblasts to secret collagen, so that the damaged tissues can be recovered. However, the hypersecretion of collagen will also lead to lung fibrosis. To investigate whether FU-LING extracts and its active ingredients are effective in regulating, protecting and/or treating the pulmonary injury-related diseases such as lung fibrosis or not, the Picrosirius red (PSR) staining was conducted as a semi-quantification of collagen, so that the inhibitory rate of FU-LING extract and its active ingredients on the TGFβ-induced intracellular accumulation of collagen in myofibroblast WI38 cells can be determined.
Myofibroblast WI38 cells (purchased from ATCC, product no. CCL75™) were divided into ten groups and separately cultivated with the following media for 48 hours:
(1) Blank group: a myolibroblast growth medium;
(2) Control group: a myofibroblast growth medium containing 1 ng/mL TGF-β (purchased from R&D system);
(3) Positive control group: a myofibroblast growth medium containing 1 ng/mL TGF-β and 200 μg/mL Pirfenidone (abbreviated as “Pir”; purchased from Sigma-Aldrich);
(4) Extract A (including four sub-groups): a myofibroblast growth medium containing 1 ng/mL TGF-β and the extract A provided by [Preparation example A-2-2], wherein the extract A is present in the four sub-groups at a concentration of 12.5, 25, 50 and 100 μg/mL respectively; and
(5) Extract B (including three sub-groups): a myofibroblast growth medium containing 1 ng/ml, TGF-β and the extract B provided by [Preparation example A-2-3], wherein the extract B is present in the […] at a concentration of 12.5, 25 and 50 μg/mL respectively.
Thereafter, the media were replaced by methanol to fix the cells at a temperature of −20° C. for 1 to 2 hours. After that, the cells were washed with PBS, and then stained with 0.1% PSR staining agent (purchased from Sigma-Aldrich) at room temperature for 4 hours. The stained cells were washed with 0.1% acetic acid, and then lysed with 0.1N sodium hydroxide to provide a lysate. The OD540 (i.e., the absorbance at a wavelength of 540 nm) of the lysate was measured. OD540 value of each group represents the content of collagen in each group, reflecting the content of collagen in fibroblast WI38 cells under different circumstances (the relative content of collagen in each group was calculated by serving the result of blank group as 0% and serving the result of control group as 100%).
Myofibroblast WI38 cells were divided into twenty-eight groups and separately cultivated with the following media for 24 hours:
(1) Blank group: a myofibroblast growth medium;
(3) Positive control group; a myofibroblast growth medium containing 1 ng/mL TGF-β and 200 μg/mL Pirfenidone (abbreviated as “Pir”; purchased from Sigma-Aldrich);
(4) Extract C group (including five sub-groups): a myofibroblast growth medium containing 1 ng/mL TGF-β and the extract C provided by [preparation example A-3-2], wherein the extract C is present in the five sub-groups at a concentration of […], 6.25 and 12.5 μg/mL respectively;
(5) Extract D group (including five sub-groups): a myofibroblast growth medium containing 1 ng/mL TGF-β and the extract D provided by [preparation example A-4-2], wherein the extract D is present in the five sub-groups at a concentration of 0.78, 1.56, 3.13, 6.25 and 12.5 μg/mL respectively;
(6) Extract E group (including five sub-groups): a myofibroblast growth medium containing 1 ng/mL TGF-β and the extract E provided by [preparation example A-4-3], wherein the extract E is present in the five sub-groups at a concentration of 0.78, 1.56, 3.13, 6.25 and 12.5 μg/mL respectively; […]

SMILES: C=C(CC[C@@H](C(=O)O)[C@H]1[C@H](O)C[C@@]2(C)C3=CC[C@H]4C(C)(C)[C@@H](O)CC[C@]4(C)C3=CC[C@]12C)C(C)C [DTA, dehydrotumulosic acid]
- Relative active expression of MMP-9 (%) (MMP-9; Table 4, 3.13 μg/mL): 79.7%
- Relative active expression of MMP-9 (%) (MMP-9; Table 4, 6.25 μg/mL): 83.9%
- Relative active expression of MMP-9 (%) (MMP-9; Table 4, 12.5 μg/mL): 80.7%

SMILES: Cc1ccc(=O)n(-c2ccccc2)c1 [Pir, Pirfenidone, reference compound]
- Relative content of collagen (%) ([1]; Table 6, Pir 200 μg/mL, 48 hours, blank 0%, control 100%): 69%
- Relative content of collagen (%) ([1]; Table 7, Pir 200 μg/mL, 24 hours, blank 0%, control 100%): 0%

SMILES: CC(C)=CCC[C@@H](C(=O)O)[C@H]1CC[C@@]2(C)C3=CC[C@H]4C(C)(C)[C@@H](O)CC[C@]4(C)C3=CC[C@]12C [DTTA, dehydrotrametenolic acid]
- Relative active expression of MMP-9 (%) (MMP-9; Table 5, 0.39 μg/mL): 91%
- Relative active expression of MMP-9 (%) (MMP-9; Table 5, 0.78 μg/mL): 99%
- Relative active expression of MMP-9 (%) (MMP-9; Table 5, 1.56 μg/mL): 79%
- Relative active expression of MMP-9 (%) (MMP-9; Table 5, 3.13 μg/mL): 72%
- Relative active expression of MMP-9 (%) (MMP-9; Table 5, 6.25 μg/mL): 74%
- Relative content of collagen (%) ([1]; Table 7, 0.39 μg/mL, 24 hours): 25%
- Relative content of collagen (%) ([1]; Table 7, 0.78 μg/mL, 24 hours): 100%
- Relative content of collagen (%) ([1]; Table 7, 1.56 μg/mL, 24 hours): 25%
- Relative content of collagen (%) ([1]; Table 7, 3.13 μg/mL, 24 hours): 53%
- Relative content of collagen (%) ([1]; Table 7, 6.25 μg/mL, 24 hours): 70%

SMILES: C[C@]12C=CC(=O)C=C1CC[C@@H]1[C@@H]2[C@@H](O)C[C@@]2(C)[C@H]1CC[C@]2(O)C(=O)CO [Pred, Prednisolone, reference compound]
- Effect on inhibiting the 1 μg/mL LPS-induced increment in active expression of MMP-9 (in words) (MMP-9; all tested concentrations): cannot inhibit
- Relative active expression of MMP-9 (%) (MMP-9; Table 5, Pred 5 μM, blank 0%, control 100%): 97%

SMILES: C[C@@H]1C[C@H]2[C@@H]3CCC4=CC(=O)C=C[C@]4(C)[C@@]3(F)[C@@H](O)C[C@]2(C)[C@@]1(O)C(=O)CO [Dex, dexamethasone, reference compound]
- Relative active expression of MMP-9 (%) (MMP-9; Table 4, Dex 1 μM, blank 0%, control 100%): 100%
